The test system of one experiment is corn. As to the kind of experiment: Test B pre-/postemergence herbicide test. It is filed as in vivo, Zea mays. As to conditions: for plant injury at 125 g/ha / Corn plant response rating (crop injury, 0 = no effect, 100 = complete kill) at 500 g/ha / plant injury at 500 g/ha: Zea mays; for plant injury at 125 g/ha / plant injury at 500 g/ha: read-out: Corn plant response rating. In a few lines: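 Response was scored visually 13 to 15 days after treatment against untreated greenhouse controls, 0 meaning no effect and 100 complete control. Formulations (solvent mixture plus surfactant) went onto soil after planting, onto foliage of 1- to 4-leaf plants, and onto 2-leaf plants in a flooded paddy set including rice and barnyardgrass.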

Another experiment concerns redroot pigweed. As to the kind of experiment: Test A pre-/postemergence herbicide test. It is filed as in vivo, Amaranthus retroflexus. As to conditions: for pest or weed control at 500 g/ha / pest or weed control at 2000 g/ha: Amaranthus retroflexus, 240 h. An outline of the steps: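 Both application timings were run together: directed soil spray over freshly planted seeds in sandy loam, and runoff spray onto 2–10 cm seedlings. Evaluation after ~10 days in greenhouse used a 0–100 visual scale versus untreated controls.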

For the next experiment, the system named is rice. As to the kind of experiment: Test C flooded paddy test. It is filed as in vivo, Oryza sativa. The conditions noted are these: for plant injury at 62 g/ha / plant injury at 125 g/ha / plant injury at 250 g/ha / plant injury at 500 g/ha: Oryza sativa; for plant injury at 500 g/ha / Plant response rating, Rice: 500 g ai/ha. An outline of the steps:
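Injury scored visually against controls on a 0 (no effect) to 100 (complete control) scale, 12 to 14 days after treatment in greenhouse. Flooded paddy plants treated at 2-leaf stage; postemergence plants at 1- to 4-leaf stage, 2 to 18 cm tall.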

In another experiment the test system is ducksalad. As to the kind of experiment: Test C flooded paddy test. It is filed as in vivo, Heteranthera limosa. The conditions noted are these: for pest or weed control at 62 g/ha / pest or weed control at 125 g/ha / pest or weed control at 250 g/ha / pest or weed control at 500 g/ha: Heteranthera limosa; for pest or weed control at 500 g/ha / Plant response rating, Ducksalad: 500 g ai/ha.

A further experiment deals with blackgrass. Nature of the experiment: Test B postemergence herbicide test. It is filed as in vivo, Alopecurus myosuroides. As to conditions: for Plant response rating, Blackgrass: visual rating after 13 to 15 days. An outline of the steps:
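Formulated test chemicals went onto postemergence plants measuring 2 to 18 cm, at one to four leaves. For the paddy assay, species had reached two leaves. Scoring took place 13–15 days later by eye, relative to untreated plants, using 0 for no effect up to 100 for full control.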

Where [1] appears, read: visual rating after 12 to 14 days, scale 0 to 100 (0 no effect, 100 complete control), read-out: Plant response rating, Rice.
The mark [2] stands for this setting: visual rating after 12 to 14 days, scale 0 to 100 (0 no effect, 100 complete control), read-out: Plant response rating, Ducksalad.
[3] abbreviates: Postemergence, 500 g ai/ha, scale 0 (no effect) to 100 (complete control).
[4] abbreviates: 62 g ai/ha, scale 0 to 100 (0 no effect, 100 complete control).
The mark [5] stands for this setting: 125 g ai/ha, scale of 0 to 100, 0 is no effect, 100 is complete control.
[6] abbreviates: 250 g ai/ha, scale of 0 to 100, 0 is no effect, 100 is complete control.
[7] abbreviates: visual rating after 12 to 14 days, scale 0 to 100 (0 no effect, 100 complete control).
Setting [8] is: 125 g ai/ha, 0 is no effect, 100 is complete control, preemergence.
Setting [9] is: 125 g ai/ha, visual rating, scale 0 (no effect) to 100 (complete control), postemergence.
[10] abbreviates: postemergence, 500 g ai/ha, scale 0 to 100, 0 is no effect, 100 is complete control.
The mark [11] stands for this setting: 125 g ai/ha, scale 0 to 100 (0 no effect, 100 complete control).

The structures appear in SMILES notation. Where two headings read alike, the source gives them in different places.

For the compound `CCn1nc(C(C)(C)C)cc1C(=O)Nc1cccc(C(=O)NCC(F)(F)F)c1` [Compound 43, 3-(1,1-dimethylethyl)-1-ethyl-N-[3-[[(2,2,2-trifluoroethyl)amino]carbonyl]-phenyl]-1H-pyrazole-5-carboxamide], the plant injury at 125 g/ha with corn (post-emergence, Postemergence, 125 g ai/ha, scale 0 (no effect) to 100 (complete control)) is 20%; in the experiment on rice (125 g ai/ha, scale of 0 to 100, 0 is no effect, 100 is complete control, read-out: Rice plant response rating), 0%. In the experiment on corn (post-emergence, Postemergence, 500 g ai/ha, visual rating after 13 to 15 days, scale 0 (no effect) to 100 (complete control)), this compound showed a Corn plant response rating (crop injury, 0 = no effect, 100 = complete kill) at 500 g/ha of 30%. Further, the plant injury at 500 g/ha in the experiment on corn (pre-emergence, Preemergence, 500 g ai/ha, scale 0 to 100) was 10%; in the experiment on rice (setting [1]) it was 20%. For the same compound, the pest or weed control at 500 g/ha in the experiment with redroot pigweed (post-emergence, Postemergence, 500 g ai/ha, 0 to 100 scale, 0 no effect, 100 complete control, read-out: Plant response rating, Pigweed) came out at 100%; with redroot pigweed (pre-emergence, Preemergence, 500 g ai/ha, visual rating, 0 to 100 scale (0 no effect, 100 complete control), read-out: Pigweed plant response rating), 100%; with ducksalad (setting [2]) it was 70%. Further, the pest or weed control at 2000 g/ha in the experiment with redroot pigweed (post-emergence, Postemergence, 2000 g ai/ha, 0 to 100 scale, 0 no effect, 100 complete control, read-out: Plant response rating, Pigweed) stood at 100%; in the experiment with redroot pigweed (pre-emergence, Preemergence, 2000 g ai/ha, 0 to 100 scale, 0 no effect, 100 complete control, read-out: Pigweed plant response rating), 100%. Further, in the experiment on rice (62 g ai/ha, scale 0 to 100 (0 no effect, 100 complete control), read-out: Rice plant response rating), the plant injury at 62 g/ha was 0%. Besides, the plant injury at 250 g/ha in the experiment with rice (250 g ai/ha, visual rating after 12 to 14 days, scale 0 to 100 (0 no effect, 100 complete control), read-out: Plant response rating, Rice) turned out to be 20%. Besides, the pest or weed control at 62 g/ha in the experiment with ducksalad (62 g ai/ha, scale 0 to 100 (0 no effect, 100 complete control), read-out: Ducksalad plant response rating) turned out to be 0%. In addition, the pest or weed control at 125 g/ha turned out to be 0% in the experiment on ducksalad (125 g ai/ha, scale of 0 to 100, 0 is no effect, 100 is complete control, read-out: Ducksalad plant response rating) and 20% with blackgrass (Alopecurus myosuroides, post-emergence, 336 h, Postemergence, 125 g ai/ha, scale 0 (no effect) to 100 (complete control), read-out: Blackgrass plant response rating). The pest or weed control at 250 g/ha with ducksalad (250 g ai/ha, visual rating after 12 to 14 days, scale 0 to 100 (0 no effect, 100 complete control), read-out: Plant response rating, Ducksalad) was determined as 60%. The “Plant response rating, Blackgrass” value in the experiment on blackgrass (setting [3]) is reported as 20.
On to `C=CCn1nc(C(C)(C)C)cc1C(=O)Nc1cccc(C(C)=NO)c1` [Compound 117], for which the “Plant response rating, Corn” value in the experiment with corn (500 g ai/ha, visual rating 0-100, 0 no effect, 100 complete control, preemergence) amounted to 30; in the experiment on corn (preemergence, 125 g ai/ha, 0 to 100 scale, 0 is no effect, 100 is complete control), 0. The “Pigweed plant response rating” value is 80 in the experiment on redroot pigweed (Postemergence, 500 g ai/ha, 0 to 100 scale, 0 no effect, 100 complete control); 55 with redroot pigweed (Preemergence, 500 g ai/ha, visual rating, 0 to 100 scale (0 no effect, 100 complete control)); 90 in the experiment on redroot pigweed (Preemergence, 2000 g ai/ha, visual rating, 0 to 100 scale (0 no effect, 100 complete control)). Moreover, the “Plant response rating, Pigweed” value in the experiment on redroot pigweed (Postemergence, 2000 g ai/ha, 0 to 100 scale, 0 no effect, 100 complete control) came out at 95. The “Rice plant response rating” value in the experiment on rice (setting [4]) was determined as 0; with rice (setting [5]) it was 15; in the experiment on rice (setting [6]) it was 45. In addition, in the experiment with rice (setting [7]), the “Plant response rating, Rice” value was 65. Also, the “Ducksalad plant response rating” value with ducksalad (setting [4]), in the experiment on ducksalad (setting [5]) and in the experiment with ducksalad (setting [6]) was 0 throughout. Further, the “Plant response rating, Ducksalad” value in the experiment on ducksalad (setting [7]) came out at 60. Besides, the “Plant response rating, Blackgrass” value with blackgrass (setting [3]) turned out to be 10. Moreover, in the experiment with blackgrass (postemergence, 125 g ai/ha, visual rating, scale 0 (no effect) to 100 (complete control)), the “Blackgrass plant response rating” value is 0.
Regarding `C#CCNC(=O)c1cccc(NC(=O)c2nn(C(C)(C)C)nc2CC)c1` [Compound 380], in the experiment with corn (setting [8]), the “Plant response rating (0 to 100 scale), Corn” value is 0. For the same compound, the entries for the “Corn plant response rating” value with corn (setting [9]) and with corn (setting [10]) were 0 and 20, respectively. The “Rice plant response rating” value was found to be 45 with rice (62 g ai/ha, scale 0 to 100); 65 in the experiment on rice (setting [11]); 70 in the experiment on rice (setting [6]). Moreover, the “Plant response rating, Rice” value with rice (setting [7]) came to 75. In addition, the “Ducksalad plant response rating” value amounted to 25 in the experiment on ducksalad (62 g ai/ha, scale 0 to 100); 50 with ducksalad (setting [11]); 75 in the experiment on ducksalad (setting [6]). The “Plant response rating, Ducksalad” value with ducksalad (setting [7]) stood at 85. For the same compound, the “Blackgrass plant response rating” value in the experiment on blackgrass (setting [9]) amounted to 20; in the experiment on blackgrass (setting [10]) it was 40.
`CCc1nn(C(C)C)nc1C(=O)Nc1cccc(C(=O)N(C)C)c1` [Compound 358, N-[3-[(dimethylamino)carbonyl)phenyl]-5-ethyl-2-(1-methylethyl)-2H-1,2,3-triazole-4-carboxamide]: the “Plant response rating (0 to 100 scale), Corn” value in the experiment on corn (setting [8]) is reported as 60. Further, the plant injury at 125 g/ha turned out to be 0% in the experiment on corn (post-emergence, 125 g ai/ha, visual rating, scale 0 (no effect) to 100 (complete control)) and 65% in the experiment with rice (125 g ai/ha, scale 0 to 100 (0 no effect, 100 complete control), read-out: Rice plant response rating). For the same compound, the plant injury at 500 g/ha in the experiment on corn (post-emergence, postemergence, 500 g ai/ha, scale 0 to 100, 0 is no effect, 100 is complete control) was determined as 0%; in the experiment with rice (setting [1]) it was 85%. This compound had a Corn plant response rating (crop injury, 0 = no effect, 100 = complete kill) at 500 g/ha in the experiment with corn (pre-emergence, 500 g ai/ha, visual rating, 0 = no effect, 100 = complete control) of 100%. In addition, the plant injury at 62 g/ha in the experiment with rice (62 g ai/ha, scale 0 to 100, read-out: Rice plant response rating) is 20%. For the same compound, the plant injury at 250 g/ha in the experiment with rice (250 g ai/ha, scale of 0 to 100, 0 is no effect, 100 is complete control, read-out: Rice plant response rating) turned out to be 70%. For the same compound, the pest or weed control at 62 g/ha in the experiment with ducksalad (62 g ai/ha, scale 0 to 100, read-out: Ducksalad plant response rating) amounted to 0%. In addition, the pest or weed control at 125 g/ha in the experiment on ducksalad (125 g ai/ha, scale 0 to 100 (0 no effect, 100 complete control), read-out: Ducksalad plant response rating) is 80%; in the experiment on blackgrass (Alopecurus myosuroides, post-emergence, 336 h, 125 g ai/ha, visual rating, scale 0 (no effect) to 100 (complete control), read-out: Blackgrass plant response rating), 10%. Besides, the pest or weed control at 250 g/ha in the experiment with ducksalad (250 g ai/ha, scale of 0 to 100, 0 is no effect, 100 is complete control, read-out: Ducksalad plant response rating) was 90%. Also, the pest or weed control at 500 g/ha with ducksalad (setting [2]) came out at 95%; in the experiment on blackgrass (Alopecurus myosuroides, post-emergence, 336 h, postemergence, 500 g ai/ha, scale 0 to 100, 0 is no effect, 100 is complete control, read-out: Blackgrass plant response rating), 40%.
For the compound `CCOC(=O)c1ccc(F)c(NC(=O)c2cc(C3(C)CC3)nn2CC)c1` [Compound 296], the “Corn plant response rating (0 to 100 scale)” value in the experiment with corn (125 g ai/ha, 0 = no effect, 100 = complete control, preemergence) is given as 30. For the same compound, the “Corn plant response rating” value came to 30 with corn (setting [9]) and 70 with corn (setting [10]). Moreover, in the experiment on corn (500 g ai/ha, visual rating, 0 = no effect, 100 = complete control, preemergence), the “Plant response rating, Corn” value worked out at 40. Also, the “Rice plant response rating” value in the experiment on rice (62 g ai/ha, scale 0 to 100) was determined as 20; in the experiment on rice (setting [11]) it was 20; with rice (setting [6]), 40. For the same compound, the “Plant response rating, Rice” value with rice (setting [7]) came out at 60. Besides, the “Ducksalad plant response rating” value amounted to 0 in the experiment with ducksalad (62 g ai/ha, scale 0 to 100); 0 with ducksalad (setting [11]); 40 in the experiment with ducksalad (setting [6]). The “Plant response rating, Ducksalad” value in the experiment on ducksalad (setting [7]) worked out at 70. Moreover, the “Blackgrass plant response rating” value is given as 30 in the experiment on blackgrass (setting [9]) and 40 in the experiment on blackgrass (setting [10]).

Source of the values: patent publication US20060069132A1, “Azolecarboxamide herbicides” (priority 2004, published 2006).
